Experimental findings from patent US4460781A, “4-(2-Benzoylphenyl-1-pyazole and 4-(2-benzoylphenyl)-1-pyrazoline derivatives” (Hoffmann-La Roche Inc., priority 1983, dated 1984) are described below.

In one series the test system is mice. The series can be described thus: Footshock (blocking of shock-elicited fighting in pairs of mice). Format: in vivo. As to conditions: Mus musculus, pretreated 1 hour, 3 out of 3 pairs blocked from fighting, maximum of 100 mg/kg, read-out: Footshock (100% blocking dose). The procedure: A pair of mice is confined under a one liter beaker placed on a grid which presents shock to the feet. At least 5 fighting episodes are elicited in a two-minute period. Pairs of mice are marked and pretreated 1 hour to a second shocking. Logarithmic dose intervals are utilized up to a maximum of 100 mg/kg. At the 100% blocking dose, 3 out of 3 pairs must be blocked from fighting.
As to `OCCn1cc2c(n1)CN=C(c1ccccc1)c1cc(Cl)ccc1-2` [8-Chloro-2-(2-hydroxyethyl)-6-phenyl-2H,4H-pyrazolo[3,4-d][2]benzazepine], the ED100 stood at 100 mg/kg.

Regarding `Clc1ccc2c(c1)C(c1ccccc1Cl)=NCc1n[nH]cc1-2` [8-Chloro-6-(2-chlorophenyl)-2H,4H-pyrazolo[3,4-d][2]benzazepine], the ED100 is 25 mg/kg.

As to `Fc1ccccc1C1=NCc2n[nH]cc2-c2ccc(Cl)cc21` [8-Chloro-6-(2-fluorophenyl)-2H,4H-pyrazolo[3,4-d][2]benzazepine], the ED100 is 25 mg/kg.

With `CNC(=O)n1cc2c(n1)CN=C(c1ccccc1)c1cc(Cl)ccc1-2` [8-Chloro-N-methyl-6-phenyl-2H,4H-pyrazolo[3,4-d][2]benzazepine-2-carboxamide], the ED100 amounted to 25 mg/kg.

System in a further series: not listed separately
The series is described as follows: Toxicity (LD50) (PO). As to conditions: in vivo.
The LD50 is the dose expected to kill half of the subjects tested. Low readings indicate greater toxicity, high ones lower toxicity. As for `Cc1[nH]nc2c1-c1ccc([N+](=O)[O-])cc1C(c1ccccc1Cl)=NC2` [6-(2-Chlorophenyl)-3-methyl-8-nitro-2H,4H-pyrazolo[3,4-d][2]benzazepine], the LD50 was greater than 1000 mg/kg.

Take `OCCn1cc2c(n1)CN=C(c1ccccc1)c1cc(Cl)ccc1-2` [8-Chloro-2-(2-hydroxyethyl)-6-phenyl-2H,4H-pyrazolo[3,4-d][2]benzazepine]: the LD50 was 750 mg/kg.

Take `Clc1ccc2c(c1)C(c1ccccc1Cl)=NCc1n[nH]cc1-2` [8-Chloro-6-(2-chlorophenyl)-2H,4H-pyrazolo[3,4-d][2]benzazepine]: the LD50 turned out to be 800 mg/kg.

For the compound `Fc1ccccc1C1=NCc2n[nH]cc2-c2ccc(Cl)cc21` [8-Chloro-6-(2-fluorophenyl)-2H,4H-pyrazolo[3,4-d][2]benzazepine], the LD50 is 760 mg/kg.

A further series deals with male mice. The series is described as follows: Inclined Screen (paralyzing effects, sliding off the screen). Format: in vivo. The conditions noted are these: Mus musculus, groups of 6, at least 4 hours, maximum dose of 500 mg/kg, read-out: Inclined Screen (PD50). Here is the method: Groups of 6 male mice are given the test drug (maximum dose of 500 mg/kg) and then are left on the inclined screen at least 4 hours for observation of paralyzing effects severe enough to cause them to slide off the screen. If activity is observed, additional doses are taken until at least two are reached at which some, but not all of the animals slide off the screen. Doses at which mice fall off the screen due to toxicity or excitation are not included in the calculation of PD50.
With `Cc1[nH]nc2c1-c1ccc([N+](=O)[O-])cc1C(c1ccccc1Cl)=NC2` [6-(2-Chlorophenyl)-3-methyl-8-nitro-2H,4H-pyrazolo[3,4-d][2]benzazepine], the ED50 turned out to be 400 mg/kg.

For the compound `OCCn1cc2c(n1)CN=C(c1ccccc1)c1cc(Cl)ccc1-2` [8-Chloro-2-(2-hydroxyethyl)-6-phenyl-2H,4H-pyrazolo[3,4-d][2]benzazepine], the ED50 was 40 mg/kg.

Take `Clc1ccc2c(c1)C(c1ccccc1Cl)=NCc1n[nH]cc1-2` [8-Chloro-6-(2-chlorophenyl)-2H,4H-pyrazolo[3,4-d][2]benzazepine]: the ED50 came out at 143 mg/kg.

As to `Fc1ccccc1C1=NCc2n[nH]cc2-c2ccc(Cl)cc21` [8-Chloro-6-(2-fluorophenyl)-2H,4H-pyrazolo[3,4-d][2]benzazepine], the ED50 is 66 mg/kg.

For the compound `CNC(=O)n1cc2c(n1)CN=C(c1ccccc1)c1cc(Cl)ccc1-2` [8-Chloro-N-methyl-6-phenyl-2H,4H-pyrazolo[3,4-d][2]benzazepine-2-carboxamide], the ED50 stood at 400 mg/kg.

Another series has as its system Cats. The series is described as follows: Unanesthetized Cat (minimum symptoms, usually ataxia). Format: in vivo. The conditions noted are these: Felis catus, po, cats treated orally. The procedure:
Cats are treated orally and observed for minimum symptoms--usually ataxia. One cat is used at a dose of 50 mg/kg. If activity is present, up to three cats/dose are used. Results are given as minimum effective dose.
As usually defined, the minimal effective dose is the smallest amount tested that counted as effective. `Cc1[nH]nc2c1-c1ccc([N+](=O)[O-])cc1C(c1ccccc1Cl)=NC2` [6-(2-Chlorophenyl)-3-methyl-8-nitro-2H,4H-pyrazolo[3,4-d][2]benzazepine] returned a minimal effective dose of 250 mg/kg.

The compound `OCCn1cc2c(n1)CN=C(c1ccccc1)c1cc(Cl)ccc1-2` [8-Chloro-2-(2-hydroxyethyl)-6-phenyl-2H,4H-pyrazolo[3,4-d][2]benzazepine] displayed a minimal effective dose of 20 mg/kg.

The compound `Clc1ccc2c(c1)C(c1ccccc1Cl)=NCc1n[nH]cc1-2` [8-Chloro-6-(2-chlorophenyl)-2H,4H-pyrazolo[3,4-d][2]benzazepine] yielded a minimal effective dose of 10 mg/kg.

Compound `Fc1ccccc1C1=NCc2n[nH]cc2-c2ccc(Cl)cc21` [8-Chloro-6-(2-fluorophenyl)-2H,4H-pyrazolo[3,4-d][2]benzazepine] yielded a minimal effective dose of 2 mg/kg.

With `CNC(=O)n1cc2c(n1)CN=C(c1ccccc1)c1cc(Cl)ccc1-2` [8-Chloro-N-methyl-6-phenyl-2H,4H-pyrazolo[3,4-d][2]benzazepine-2-carboxamide], the minimal effective dose came to 20 mg/kg.
